According to ChEMBL document CHEMBL1137993, “Novel histone deacetylase inhibitors: cyclic tetrapeptide with trifluoromethyl and pentafluoroethyl ketones” (Bioorg Med Chem Lett, 2004):

Test system: Nucleic Acid

CC[C@H](C)[C@@H]1NC(=O)[C@@H](Cc2ccc(OC)cc2)NC(=O)[C@H](CCCCCC(=O)C(F)(F)F)NC(=O)[C@H]2CCCN2C1=O gave an EC50 of 3.09 µM.

For CC[C@H](C)[C@@H]1NC(=O)[C@@H](Cc2ccc(OC)cc2)NC(=O)[C@H](CCCCCC(=O)C(F)(F)C(F)(F)F)NC(=O)[C@H]2CCCN2C1=O, the EC50 was 31.1 µM.

With CC(/C=C/C(=O)NO)=C\[C@@H](C)C(=O)c1ccc(N(C)C)cc1 [TRICHOSTATIN] the EC50 was 0.77 µM.
